The results in this text go back to ChEMBL document CHEMBL1159080, “Discovery of cyclicsulfonamide derivatives as 11 beta-hydroxysteroid dehydrogenase 1 inhibitors” (Bioorg Med Chem Lett, 2010).

For series [1], the target named is Voltage-gated inwardly rectifying potassium channel KCNH2 (Homo sapiens, UniProt Q12809). Briefly: Inhibition of human ERG.
In series [2] the target is T1, 11-beta-hydroxysteroid dehydrogenase type 2 (Homo sapiens) (UniProt P80365).
T1 sequence (whole entry): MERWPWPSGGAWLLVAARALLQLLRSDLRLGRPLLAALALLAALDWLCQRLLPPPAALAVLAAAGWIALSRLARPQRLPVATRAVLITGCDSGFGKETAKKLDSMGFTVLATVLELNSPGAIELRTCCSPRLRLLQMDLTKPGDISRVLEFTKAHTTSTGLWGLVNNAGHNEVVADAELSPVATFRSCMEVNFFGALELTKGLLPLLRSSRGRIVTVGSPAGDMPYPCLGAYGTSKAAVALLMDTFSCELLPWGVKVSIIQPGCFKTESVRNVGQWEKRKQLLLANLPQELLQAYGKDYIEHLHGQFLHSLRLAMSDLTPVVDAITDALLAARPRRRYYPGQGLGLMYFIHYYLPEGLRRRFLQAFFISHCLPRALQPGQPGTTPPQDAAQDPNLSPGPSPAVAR
As to the kind of experiment: Inhibition of human 11beta-HSD2 overexpressed in HEK293 cells at 20 uM by HTRF cortisol assay. The format is cell-based. A general note: In TR-FRET formats the signal depends on donor and acceptor labels being close together.

Series [3] in a line: Half life in human liver microsomes. The format is ADME, Microsome. For orientation: Microsomes from liver hold many membrane-bound enzymes, among them those of drug oxidation.
Series [4] is described as follows: Oral bioavailability in rat. It counts as ADME, organism-based. The following applies: in vivo.
Series [5] is described as follows: Cmax in rat. The following applies: in vivo. The format is ADME, organism-based.
The target of series [6] is 11-beta-hydroxysteroid dehydrogenase 1 (Mus musculus, UniProt P50172). As to the kind of experiment: Inhibition of 11beta-HSD1 in mouse C2C12 cells by HTRF cortisol assay. The format is cell-based.
Sequence of 11-beta-hydroxysteroid dehydrogenase 1 (Mus musculus, UniProt P50172) (P50172 whole entry): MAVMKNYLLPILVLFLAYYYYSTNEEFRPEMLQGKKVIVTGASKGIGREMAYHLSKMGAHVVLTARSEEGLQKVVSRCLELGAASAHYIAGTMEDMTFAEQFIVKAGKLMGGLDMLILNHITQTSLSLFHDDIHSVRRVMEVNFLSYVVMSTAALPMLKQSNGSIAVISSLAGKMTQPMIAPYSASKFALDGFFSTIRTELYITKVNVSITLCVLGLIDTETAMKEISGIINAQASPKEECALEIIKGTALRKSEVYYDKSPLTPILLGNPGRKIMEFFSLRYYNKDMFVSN
Series [7] is described as follows: Half life in rat. It counts as ADME, organism-based. The following applies: in vivo.
For another series, the species on record is Rattus norvegicus. As to the kind of experiment: Clearance in rat. It counts as ADME, organism-based. Particulars: in vivo.
The target of series [8] is 11-beta-hydroxysteroid dehydrogenase 1 (Homo sapiens, UniProt P28845). Briefly: Inhibition of 11beta-HSD1 in human microsomes by HTRF cortisol assay. Also noted: species or system Microsome.
Sequence of 11-beta-hydroxysteroid dehydrogenase 1 (Homo sapiens, UniProt P28845) (P28845 whole entry): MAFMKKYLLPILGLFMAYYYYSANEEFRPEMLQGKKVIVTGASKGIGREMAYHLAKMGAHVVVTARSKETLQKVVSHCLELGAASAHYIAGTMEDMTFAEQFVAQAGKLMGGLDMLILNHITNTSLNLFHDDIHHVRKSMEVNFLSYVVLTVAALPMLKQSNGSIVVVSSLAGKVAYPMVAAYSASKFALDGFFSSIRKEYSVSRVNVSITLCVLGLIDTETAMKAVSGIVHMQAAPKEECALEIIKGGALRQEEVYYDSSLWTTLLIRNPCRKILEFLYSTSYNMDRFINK

Sequence of Voltage-gated inwardly rectifying potassium channel KCNH2 (Q12809 whole entry): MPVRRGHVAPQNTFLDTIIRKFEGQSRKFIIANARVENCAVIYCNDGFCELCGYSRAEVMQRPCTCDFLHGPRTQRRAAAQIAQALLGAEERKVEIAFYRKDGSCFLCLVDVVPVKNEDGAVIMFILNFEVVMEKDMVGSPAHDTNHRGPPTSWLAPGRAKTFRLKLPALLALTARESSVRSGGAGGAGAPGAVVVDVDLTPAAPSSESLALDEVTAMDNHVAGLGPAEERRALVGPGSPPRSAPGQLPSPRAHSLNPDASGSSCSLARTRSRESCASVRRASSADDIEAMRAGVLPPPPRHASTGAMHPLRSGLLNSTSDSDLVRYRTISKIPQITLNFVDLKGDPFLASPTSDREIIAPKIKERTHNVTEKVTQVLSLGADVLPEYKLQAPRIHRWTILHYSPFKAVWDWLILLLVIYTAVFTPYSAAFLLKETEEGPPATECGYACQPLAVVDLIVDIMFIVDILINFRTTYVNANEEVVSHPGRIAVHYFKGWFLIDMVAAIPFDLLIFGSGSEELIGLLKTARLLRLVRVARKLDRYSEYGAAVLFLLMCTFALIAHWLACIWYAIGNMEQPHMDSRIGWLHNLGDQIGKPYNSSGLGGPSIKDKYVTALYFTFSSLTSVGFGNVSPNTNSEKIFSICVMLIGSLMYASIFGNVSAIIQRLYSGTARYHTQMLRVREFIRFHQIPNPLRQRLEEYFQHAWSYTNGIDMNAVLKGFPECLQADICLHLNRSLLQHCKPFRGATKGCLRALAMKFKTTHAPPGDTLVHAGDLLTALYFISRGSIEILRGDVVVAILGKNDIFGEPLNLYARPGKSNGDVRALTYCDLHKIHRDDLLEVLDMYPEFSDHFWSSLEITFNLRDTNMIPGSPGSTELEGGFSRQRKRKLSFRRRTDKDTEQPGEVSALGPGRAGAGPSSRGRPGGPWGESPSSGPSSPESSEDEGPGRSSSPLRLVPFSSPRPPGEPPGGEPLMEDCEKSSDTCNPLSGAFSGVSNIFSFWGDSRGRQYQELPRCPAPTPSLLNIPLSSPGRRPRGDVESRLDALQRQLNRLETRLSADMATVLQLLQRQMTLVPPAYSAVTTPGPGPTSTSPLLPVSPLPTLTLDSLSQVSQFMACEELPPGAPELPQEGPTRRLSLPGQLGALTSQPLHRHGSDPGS

On to `O=C(CN1C(C(=O)c2ccccc2)=C(O)c2ccccc2S1(=O)=O)c1ccccc1`, for which the IC50 (commonly the concentration at which inhibition is half-maximal) in series [1] is over 100000 nM; in series [6] it was 7800 nM. For the same compound, in series [2], the inhibition (as a rule, the percentage by which the read-out fell short of the control) came to 6%. Further, the half-life (as a rule, the time needed for the level to fall by half in the phase considered) is 1.25 h in series [3] and 5.5 h in series [7]. The bioavailability (in general, the share of a dose that reaches the circulation, judged against a reference dose that is usually intravenous) in [4] came out at 48.7%. For the same compound, the Cmax (as a rule, the highest concentration seen after dosing) in series [5] stood at 1100 ng/mL. Moreover, the CL in the series listed under Rattus norvegicus was determined as 6.7 mL/min/kg.

Compound `COC(=O)c1ccc(C(=O)CN2C(C(=O)c3ccccc3)=C(O)c3ccccc3S2(=O)=O)cc1` yielded an IC50 in series [8] of 31 nM.

`O=C(CN1C(C(=O)c2ccccc2)=C(O)c2ccccc2S1(=O)=O)c1ccc(-c2ccccc2)cc1`: in series [8], 28 nM corresponded to half-maximal inhibition (IC50).

`O=C(CN1C(C(=O)c2ccccc2)=C(O)c2ccccc2S1(=O)=O)c1ccc([N+](=O)[O-])cc1`: the midpoint of inhibition in [8], the IC50, lay at 30 nM.

For the compound `N#Cc1ccc(C(=O)CN2C(C(=O)c3ccccc3)=C(O)c3ccccc3S2(=O)=O)cc1`, the IC50 in [8] amounted to 40 nM; in series [6], 9000 nM.

With `O=C(O)c1ccc(C(=O)CN2C(C(=O)c3ccccc3)=C(O)c3ccccc3S2(=O)=O)cc1`, 720 nM corresponded to half-maximal inhibition in series [8] (IC50).
